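The compound was tested at five concentrations on cells cultured in 96-well plates, with a 48-hour exposure period. GI50 is the concentration that inhibits growth by half.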 The source made the active and inactive calls. Cut-off read from the data, not from the text of the source: active = GI50 up to about 1.1 µM and inactive = higher.
Columns and labels:
Assay in all cases: inhibition of tumour cell growth, NCI panel, 48 h
SK-MEL-2 = test system: SK-MEL-2
SR = test system: SR
OVCAR-5 = test system: OVCAR-5
M14 = test system: M14
PC-3 = test system: PC-3
A549 = test system: A549
COLO 205 = test system: COLO 205
DU-145 = test system: DU-145
BT-549 = test system: BT-549
SF-268 = test system: SF-268
MOLT-4 = test system: MOLT-4
MDA-MB-231 = test system: MDA-MB-231
TK-10 = test system: TK-10
MDA-MB-435 = test system: MDA-MB-435
HL-60 = test system: HL-60
A498 = test system: A498
MDA-N = test system: MDA-N
MCF7 = test system: MCF7
NCI-H460 = test system: NCI-H460
SNB-19 = test system: SNB-19
HCC 2998 = test system: HCC 2998
EKVX = test system: EKVX
NCI-H522 = test system: NCI-H522
SK-OV-3 = test system: SK-OV-3
SK-MEL-28 = test system: SK-MEL-28
SNB-75 = test system: SNB-75
NCI/ADR-RES = test system: NCI/ADR-RES
NCI-H23 = test system: NCI-H23
UO-31 = test system: UO-31
Hs-578T = test system: Hs-578T
Malme-3M = test system: Malme-3M
KM12 = test system: KM12
786-0 = test system: 786-0
SN12C = test system: SN12C
HT-29 = test system: HT-29
LOX IMVI = test system: LOX IMVI
SK-MEL-5 = test system: SK-MEL-5
SF-539 = test system: SF-539
RPMI-8226 = test system: RPMI-8226
HOP-92 = test system: HOP-92
U-251 = test system: U-251
SW-620 = test system: SW-620
UACC-62 = test system: UACC-62
CAKI-1 = test system: CAKI-1
UACC-257 = test system: UACC-257
HCT-116 = test system: HCT-116
OVCAR-8 = test system: OVCAR-8
CCRF-CEM = test system: CCRF-CEM
ACHN = test system: ACHN
HOP-62 = test system: HOP-62
OVCAR-3 = test system: OVCAR-3
IGROV-1 = test system: IGROV-1
T47D = test system: T47D
SF-295 = test system: SF-295
HCT-15 = test system: HCT-15
K562 = test system: K562
RXF 393 = test system: RXF 393
NCI-H226 = test system: NCI-H226
OVCAR-4 = test system: OVCAR-4

O=C1Nc2cccc(Cl)c2/C1=C\c1c(Cl)nc2sccn12
GI50 (SK-MEL-2): 13.5 µM (inactive) | GI50 (SR): > 100 µM (inactive) | GI50 (OVCAR-5): > 100 µM (inactive) | GI50 (M14): 50.2 µM (inactive) | GI50 (PC-3): 64.4 µM (inactive) | GI50 (A549): > 100 µM (inactive) | GI50 (COLO 205): > 100 µM (inactive) | GI50 (DU-145): 65 µM (inactive) | GI50 (BT-549): 28.8 µM (inactive) | GI50 (SF-268): 18.9 µM (inactive) | GI50 (MOLT-4): > 100 µM (inactive) | GI50 (MDA-MB-231): 16.3 µM (inactive) | GI50 (TK-10): 11.2 µM (inactive) | GI50 (MDA-MB-435): > 100 µM (inactive) | GI50 (HL-60): > 100 µM (inactive) | GI50 (A498): 33.1 µM (inactive) | GI50 (MDA-N): > 100 µM (inactive) | GI50 (MCF7): > 100 µM (inactive) | GI50 (NCI-H460): > 100 µM (inactive) | GI50 (SNB-19): 17.6 µM (inactive) | GI50 (HCC 2998): > 100 µM (inactive) | GI50 (EKVX): 43.3 µM (inactive) | GI50 (NCI-H522): 50.5 µM (inactive) | GI50 (SK-OV-3): 14.9 µM (inactive) | GI50 (SK-MEL-28): > 100 µM (inactive) | GI50 (SNB-75): 11.2 µM (inactive) | GI50 (NCI/ADR-RES): 55.1 µM (inactive) | GI50 (NCI-H23): 21.7 µM (inactive) | GI50 (UO-31): 27.7 µM (inactive) | GI50 (Hs-578T): 21.9 µM (inactive) | GI50 (Malme-3M): 76 µM (inactive) | GI50 (KM12): > 100 µM (inactive) | GI50 (786-0): 9.31 µM (inactive) | GI50 (SN12C): 29.6 µM (inactive) | GI50 (HT-29): > 100 µM (inactive) | GI50 (LOX IMVI): 63.8 µM (inactive) | GI50 (SK-MEL-5): > 100 µM (inactive) | GI50 (SF-539): 5.2 µM (inactive) | GI50 (RPMI-8226): > 100 µM (inactive) | GI50 (HOP-92): 16.8 µM (inactive) | GI50 (U-251): 6.03 µM (inactive) | GI50 (SW-620): > 100 µM (inactive) | GI50 (UACC-62): 31.5 µM (inactive) | GI50 (CAKI-1): 43.2 µM (inactive) | GI50 (UACC-257): > 100 µM (inactive) | GI50 (HCT-116): 37.3 µM (inactive) | GI50 (OVCAR-8): 31.1 µM (inactive) | GI50 (CCRF-CEM): > 100 µM (inactive) | GI50 (ACHN): 12.2 µM (inactive) | GI50 (HOP-62): 15 µM (inactive) | GI50 (OVCAR-3): > 100 µM (inactive) | GI50 (IGROV-1): 28 µM (inactive) | GI50 (T47D): 44.6 µM (inactive) | GI50 (SF-295): 28.2 µM (inactive) | GI50 (HCT-15): > 100 µM | GI50 (K562): > 100 µM (inactive) | GI50 (RXF 393): 13.7 µM (inactive)

CC(=O)OCC1OC(n2c3c(cc(C#N)c2=O)CCCCCC3)C(OC(C)=O)C(OC(C)=O)C1OC(C)=O (stereo unspecified)
GI50 (SK-MEL-2): > 100 µM (inactive) | GI50 (SR): 96.6 µM (inactive) | GI50 (OVCAR-5): > 100 µM (inactive) | GI50 (M14): > 100 µM (inactive) | GI50 (PC-3): > 100 µM (inactive) | GI50 (A549): > 100 µM (inactive) | GI50 (COLO 205): > 100 µM (inactive) | GI50 (DU-145): > 100 µM (inactive) | GI50 (BT-549): > 100 µM (inactive) | GI50 (SF-268): > 100 µM (inactive) | GI50 (MOLT-4): > 100 µM (inactive) | GI50 (MDA-MB-231): > 100 µM (inactive) | GI50 (TK-10): > 100 µM (inactive) | GI50 (MDA-MB-435): > 100 µM (inactive) | GI50 (HL-60): > 100 µM (inactive) | GI50 (A498): > 100 µM (inactive) | GI50 (MDA-N): > 100 µM (inactive) | GI50 (MCF7): > 100 µM (inactive) | GI50 (NCI-H226): > 100 µM (inactive) | GI50 (NCI-H460): > 100 µM (inactive) | GI50 (SNB-19): > 100 µM (inactive) | GI50 (HCC 2998): > 100 µM (inactive) | GI50 (NCI-H522): > 100 µM (inactive) | GI50 (SK-MEL-28): > 100 µM (inactive) | GI50 (SNB-75): 18.4 µM (inactive) | GI50 (NCI/ADR-RES): > 100 µM (inactive) | GI50 (NCI-H23): > 100 µM (inactive) | GI50 (UO-31): > 100 µM (inactive) | GI50 (OVCAR-4): > 100 µM (inactive) | GI50 (Hs-578T): > 100 µM (inactive) | GI50 (Malme-3M): > 100 µM (inactive) | GI50 (KM12): > 100 µM (inactive) | GI50 (786-0): > 100 µM (inactive) | GI50 (SN12C): > 100 µM (inactive) | GI50 (HT-29): > 100 µM (inactive) | GI50 (LOX IMVI): > 100 µM (inactive) | GI50 (SK-MEL-5): > 100 µM (inactive) | GI50 (SF-539): > 100 µM (inactive) | GI50 (RPMI-8226): > 100 µM (inactive) | GI50 (HOP-92): > 100 µM (inactive) | GI50 (U-251): > 100 µM (inactive) | GI50 (UACC-62): > 100 µM (inactive) | GI50 (CAKI-1): > 100 µM (inactive) | GI50 (UACC-257): > 100 µM (inactive) | GI50 (HCT-116): > 100 µM (inactive) | GI50 (OVCAR-8): > 100 µM (inactive) | GI50 (CCRF-CEM): > 100 µM (inactive) | GI50 (ACHN): > 100 µM (inactive) | GI50 (HOP-62): > 100 µM (inactive) | GI50 (OVCAR-3): > 100 µM (inactive) | GI50 (IGROV-1): > 100 µM (inactive) | GI50 (T47D): 22.7 µM (inactive) | GI50 (SF-295): > 100 µM (inactive) | GI50 (HCT-15): > 100 µM | GI50 (K562): > 100 µM (inactive) | GI50 (RXF 393): > 100 µM (inactive)

CCOC(=O)C(C)c1nc2cc(N3CCOCC3)c(F)cc2[nH]c1=O (stereo unspecified)
GI50 (SK-MEL-2): > 100 µM (inactive) | GI50 (SR): > 100 µM (inactive) | GI50 (OVCAR-5): > 100 µM (inactive) | GI50 (M14): > 100 µM (inactive) | GI50 (PC-3): > 100 µM (inactive) | GI50 (A549): > 100 µM (inactive) | GI50 (COLO 205): > 100 µM (inactive) | GI50 (DU-145): > 100 µM (inactive) | GI50 (BT-549): > 100 µM (inactive) | GI50 (SF-268): > 100 µM (inactive) | GI50 (MOLT-4): > 100 µM (inactive) | GI50 (MDA-MB-231): > 100 µM (inactive) | GI50 (TK-10): > 100 µM (inactive) | GI50 (MDA-MB-435): > 100 µM (inactive) | GI50 (HL-60): > 100 µM (inactive) | GI50 (A498): > 100 µM (inactive) | GI50 (MDA-N): > 100 µM (inactive) | GI50 (MCF7): > 100 µM (inactive) | GI50 (NCI-H226): > 100 µM (inactive) | GI50 (NCI-H460): > 100 µM (inactive) | GI50 (SNB-19): > 100 µM (inactive) | GI50 (HCC 2998): > 100 µM (inactive) | GI50 (EKVX): > 100 µM (inactive) | GI50 (NCI-H522): 53.1 µM (inactive) | GI50 (SK-OV-3): > 100 µM (inactive) | GI50 (SK-MEL-28): > 100 µM (inactive) | GI50 (SNB-75): > 100 µM (inactive) | GI50 (NCI/ADR-RES): > 100 µM (inactive) | GI50 (NCI-H23): > 100 µM (inactive) | GI50 (UO-31): > 100 µM (inactive) | GI50 (OVCAR-4): > 100 µM (inactive) | GI50 (Hs-578T): > 100 µM (inactive) | GI50 (Malme-3M): > 100 µM (inactive) | GI50 (KM12): > 100 µM (inactive) | GI50 (786-0): > 100 µM (inactive) | GI50 (SN12C): > 100 µM (inactive) | GI50 (HT-29): > 100 µM (inactive) | GI50 (SK-MEL-5): > 100 µM (inactive) | GI50 (SF-539): > 100 µM (inactive) | GI50 (RPMI-8226): > 100 µM (inactive) | GI50 (HOP-92): > 100 µM (inactive) | GI50 (U-251): > 100 µM (inactive) | GI50 (SW-620): > 100 µM (inactive) | GI50 (UACC-62): > 100 µM (inactive) | GI50 (CAKI-1): > 100 µM (inactive) | GI50 (UACC-257): > 100 µM (inactive) | GI50 (HCT-116): > 100 µM (inactive) | GI50 (OVCAR-8): > 100 µM (inactive) | GI50 (CCRF-CEM): > 100 µM (inactive) | GI50 (ACHN): > 100 µM (inactive) | GI50 (HOP-62): > 100 µM (inactive) | GI50 (OVCAR-3): > 100 µM (inactive) | GI50 (IGROV-1): > 100 µM (inactive) | GI50 (T47D): > 100 µM (inactive) | GI50 (SF-295): > 100 µM (inactive) | GI50 (HCT-15): > 100 µM | GI50 (K562): > 100 µM (inactive) | GI50 (RXF 393): > 100 µM (inactive)
